From publication PMC4912613, “A broad analysis of resistance development in the malaria parasite” (Nature Communications, 2016)
Marks after values point to notes of the source that are not given here.

What was measured:
[1] = test system: P. falciparum 3D7, Dd2, Dd2Δexo; assay: In vitro evolution of compound-resistant lines (selection); format: cell-based, Plasmodium falciparum; conditions: for Time Length to Obtain Mutants: in vitro selection; for # of Resistant Strains Generated: resistant cultures out of three independent cultures; for EC50 fold shifts observed: selected parasites vs selection parent
From the text: While we found an overall lack of pre-existing resistance, analysing the onset of resistance was critical, as compounds resulting in rapid resistance are not ideal for clinical development. We therefore sought to create drug-resistant parasites using a variety of different selection methods. We implemented either a high-dose method or a ramp-up/pulse method for our in vitro selections. Two of the 50 compounds—MMV028895 and MMV665824—were removed from the selection study during experimentation. […] Out of the remaining 48 compounds, resistant parasites were obtained for 23 (Supplementary Data 1). As each selection was performed in triplicate with three independent cultures, we succeeded in generating a total of 66 resistant cultures. Parasites resistant to MMV026596 were not obtained despite 100 days of selection, but the cultures acquired hypersensitivity to mefloquine with a 10-fold reduction in EC50 compared with its parental line, 3D7. For the remaining 24 compounds, acquisition of resistant parasites was unsuccessful despite numerous attempts over an extensive period of time.
Based on the compound speed of action and lab specialty, selections were conducted using a high-pressure intermittent selection method, a step-wise selection method, or a constant selection method. For high-pressure selections, ∼1–2 × 10^9 parasites were treated at a concentration of 3–10 × EC50 until parasites could not be seen by microscopy (4–10 days). Following treatment, compound pressure was removed and cultures were allowed to recover. Once healthy parasites were seen and parasitemia reached ∼2%, compound pressure was reinstated. For step-wise selections, ∼1 × 10^8 parasites were treated at a starting concentration resulting in a reduced growth rate of 50%. Cultures were examined daily by microscopy, increasing compound concentration in increments of 5–10% as needed to maintain a 50% reduced growth rate. Selections were carried out until cultures achieved a reproducible EC50 fold shift of >3 × . Finally, constant selections were conducted in a similar manner to the high-pressure intermittent method with the exception that compound pressure was never removed. Following successful selection, cultures were cloned out using a limiting dilution method as previously described. Selections were terminated after 200 days if resistance could not be obtained.

[2] = test system: CYTbQi (cytb G33A, parent Dd2); assay: Cross-resistance EC50 assay, CYTbQi; format: cell-based; conditions: Plasmodium falciparum, SYBR green 72 hour assay, synchronized parasites, 384-well format
From the text: To evaluate potential overlapping activity against known antimalarial drug targets, we performed dose-response studies with each compound against our assembled set of drug-resistant lines and their corresponding parents, in an asexual blood stage proliferation assay (Table 1). Comparisons were made to the drug-sensitive strain 3D7 when a parent was unavailable (TM90C2A, W2 and Dd2). As laboratories conducted EC50 assays with different strains and protocols, all comparisons were made between assays from the same laboratory and under the same assay conditions. Compounds displaying >5-fold EC50 shifts relative to the parent or sensitive strain were flagged as having potentially non-novel targets. Average fold shifts per strain ranged from 0.82 to 2.34, with a median of 1.23 indicating there was not common resistance to any one resistant clone. No resistance patterns were observed when classifying the compounds based on chemical structure, but this was not surprising given the diversity of compounds chosen. On the other hand, given that these confirmed compounds were derived from larger unconfirmed hit lists to which some filtration criteria may have been applied (for example, elimination of obvious dihydrofolate reductase inhibitors[32]), some[10][11][12][13] pre-existing bias may exist in the set. […]
Alternatively, a SYBR Green-based proliferation approach was used for the 72-h assay, as previously described. Briefly, a culture of either synchronized or asynchronous parasitized RBCs (0.3% parasitemia and 4% haematocrit) in screening medium (identical to supplemented medium above except no serum was added) was exposed to serial drug dilutions. Plates were incubated at 37 °C and gassed with 93% N2, 4% CO2 and 3% O2 for 72 h. Following incubation, 10 × SYBR Green I (Invitrogen; supplied in 10,000 × concentration) in lysis buffer ([…], 5 mM EDTA, 0.16% Saponin wt per vol and 1.6% Triton X vol per vol) was added to the wells and the plates were incubated overnight at room temperature before plate reading. EC50 assays were repeated three times, taking the average EC50 value from each assay set, and removing any outliers using a single iteration of Grubbs' test, eliminating values with z-scores above the critical z-value (α=0.05). The raw EC50 values for synchronized parasites assayed in a 384-well format are listed in Supplementary Data 4. The raw EC50 values for asynchronous parasites assayed in a 96 or 1536-well format are listed in Supplementary Data 5.
EC50 values for each strain were compared with those of the corresponding parent strain to determine fold-shift changes and identify resistance. To minimize the cause variance between assays, all comparisons were conducted between strains assayed under identical conditions. A one-way ANOVA followed by a Dunnet's post-test was conducted in GraphPad Prism to identify significant changes between the parent and resistant strain.

Structure (SMILES) | Time Length to Obtain Mutants [1] | # of Resistant Strains Generated [1] | EC50 fold shifts observed [1] | EC50 ([2]; DD2, CYTbQi strain) | EC50 ([2]; strain CYTbQi (Dd2 parent))
COc1ccc(NC(=O)N2CCCCN3[C@H](CN)[C@H](c4ccc(C#Cc5ccccc5)cc4)[C@@H]3C2)cc1 [BRD1095] | SHORT (0-50 days) | 3/3 | 4-100x | 18 nM | 
CCN(CC)CCn1c(=N)n(CC(O)c2ccc(Cl)c(Cl)c2)c2ccccc21.Cl (stereo not shown) [MMV000248] | LONG (> 125 days) | 0/3 | no shift |  | 340 nM
CCOc1cc2c(cc1OCC)C(c1cc(Cl)ccc1O)NCC2 (stereo not shown) [MMV000478] | LONG (> 125 days) | 0/3 | no shift |  | 817 nM
CCCOCc1cc(CN2CCN(c3cccc(Cl)c3)CC2)c(O)c2ncccc12 [MMV000787] | LONG (> 125 days) | 0/3 | no shift |  | 520 nM
CN1CCN(c2ccc(Nc3c4ccccc4nc4ccccc34)cc2)CC1 [MMV006172] | LONG (> 125 days) | 0/3 | no shift |  | 107 nM
CCCN(CCC)CC(O)COc1ccccc1C(=O)Nc1ccccc1 (stereo not shown) [MMV006455] | LONG (> 125 days) | 0/3 | no shift |  | 200 nM
COc1cc2cc(C(=O)Nc3ccccc3)c(N)nc2cc1OC [MMV006767] | MODERATE (50-125 days) | 2/3* | 2-4x |  | 1930 nM
Cc1cc(Nc2ccc(OCc3ccccc3)cc2)nc2cc(O)ccc12 [MMV007181] | LONG (> 125 days) | 0/3 | no shift |  | 144 nM
Brc1ccc(Nc2nc3ccccc3nc2Nc2ccc(Br)cc2)cc1 [MMV007224] | LONG (> 125 days) | 3/3 | 1.7x |  | 327 nM
Cc1ccc(Cn2c(N3CCC(C(=O)NCc4cccs4)CC3)nc3ccccc32)cc1 [MMV007564] | SHORT (0-50 days) | 3/3 | 7-12x |  | 574 nM
Cc1c(C)n(Cc2ccc(F)cc2)c2ccc(C(=O)NCc3ccco3)cc12 [MMV008149] | SHORT (0-50 days) | 3/3 |  |  | 87 nM
OC(CNC1CCCCC1)Cn1c2ccccc2c2ccccc21 (stereo not shown) [MMV009063] | LONG (> 125 days) | 3/3 | 1.9-3.4x |  | 257 nM
CCN(CC)S(=O)(=O)c1ccc(-c2csc(Nc3ccc(C)c(C)c3)n2)cc1 [MMV009108] | SHORT (0-50 days) | 3/3 | 9x |  | 416 nM
COC(=O)c1ccc(C2C3=C(O)CC(c4ccc(F)cc4)CC3=Nc3ccccc3N2C(=O)c2ccccc2)cc1 (stereo not shown) [MMV011438] | LONG (> 125 days) | 0/3 | no shift |  | 235 nM
